Results taken from patent US8575168B2, “Compounds and compositions as modulators of GPR119 activity” (IRM LLC, priority 2009, dated 2013).
pEC50: −log10 of the molar value.

target: T1, human GPR119 (Homo sapiens, UniProt Q8TDV5); test: Cyclic AMP Assay in Stable Cell Line (HTRF); assay type: cell-based; conditions: Flp-In-CHO-hGPR119 cells, intracellular cAMP, 30 minutes at 37° C., 1 mM IBMX
T1 construct: expressed in transfected cells
T1 sequence (Q8TDV5 1-335): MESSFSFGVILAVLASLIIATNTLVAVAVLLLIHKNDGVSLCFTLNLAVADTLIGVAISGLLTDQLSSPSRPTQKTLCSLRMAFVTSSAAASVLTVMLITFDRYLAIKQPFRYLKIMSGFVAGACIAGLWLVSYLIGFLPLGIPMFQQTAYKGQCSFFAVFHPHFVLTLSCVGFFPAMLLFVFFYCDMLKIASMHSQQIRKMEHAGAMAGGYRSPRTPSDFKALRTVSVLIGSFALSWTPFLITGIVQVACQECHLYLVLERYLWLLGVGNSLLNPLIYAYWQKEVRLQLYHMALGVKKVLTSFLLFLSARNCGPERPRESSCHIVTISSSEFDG
Method: Flp-In-CHO cells (Invitrogen, Cat. #R758-07) are maintained in Ham's F12 medium supplemented with 10% fetal bovine serum, 1% antibiotic mixture and 2 mM L-glutamine. The cells are transfected with a DNA mixture containing human GPR119 in pcDNA5/FRT vector and the pOG44 vector (1:9) using Fugene6 (Roche), according to the manufacturer's instruction. After 48 hours, the medium is changed to medium supplemented with 400 μg/ml hygromycin B to initiate the selection of stably transfected cells.
To test the activity of compounds of the invention, Flp-In-CHO-hGPR119 cells are harvested and resuspended in DMEM plus 3% lipid-depleted fetal bovine serum. Forth μl of cells are plated in 384 well plates at a density of 15,000 cells/well. IBMX (3-isobutyl-1-methyl-xanthine) is added to the cells to a final concentration of 1 mM, followed by the addition of 500 nl of the compound to be tested. The cells are incubated at 37° C. for 30 minutes. Equal volume (20 μl) of the HTRF reagents, anti-cAMP-Cryptate and cAMP-XL665, are added to the cells. The plates are incubated at room temperature for 1 hour and read on a HTRF reader according to the manufacturer's instruction.

Row | pEC50 | Compound
1 | 6.93 | CC(C)c1ccc(CN2CC(Oc3ccc(N4CCN(S(C)(=O)=O)CC4)nc3)C2)cc1 [Example A1, 1-(5-(1-(4-isopropylbenzyl)azetidin-3-yloxy)pyridin-2-yl)-4-(methylsulfonyl)piperazine]
2 | 6.01 | CC(C)c1ccc(CN2CC(Oc3ccc(N4CCN(C(=O)OCc5ccccc5)CC4=O)nc3)C2)cc1 [Example A2, Benzyl 4-(5-(1-(4-isopropylbenzyl)azetidin-3-yloxy)pyridin-2-yl)-3-oxopiperazine-1-carboxylate]
3 | 7.70 | CS(=O)(=O)N1CCN(c2cnc(OC3CN(Cc4ccc(C(F)(F)F)cc4)C3)cn2)C(=O)C1 [Example A3]
4 | 7.92 | CS(=O)(=O)N1CCN(c2cnc(OC3CN(Cc4ccc(OC(F)(F)F)cc4)C3)cn2)C(=O)C1 [Example A4, 4-(methylsulfonyl)-1-(5-(1-(4-(trifluoromethoxy)benzyl)azetidin-3-yloxy)pyrazin-2-yl)piperazin-2-one]
5 | 8.05 | CS(=O)(=O)N1CCC(c2cc(F)c(OC3CCN(Cc4ccc(C(F)(F)F)cc4)CC3)c(F)c2)CC1 [Example A5]
6 | 7.16 | CS(=O)(=O)N1CCN(c2cnc(OC3CN(Cc4ccc(C(F)(F)F)cc4)C3)cn2)CC1 [Example A6, 2-(4-(methylsulfonyl)piperazin-1-yl)-5-(1-(4-(trifluoromethyl)benzyl)azetidin-3-yloxy)pyrazine]
7 | 7.89 | CS(=O)(=O)N1CCC(c2cc(F)c(OC3CN(Cc4ccc(C(F)(F)F)cc4)C3)c(F)c2)CC1 [Example A7, 4-(3,5-difluoro-4-(1-(4-(trifluoromethyl)benzyl)azetidin-3-yloxy)phenyl)-1-(methylsulfonyl)piperidineine]
8 | 7.15 | CS(=O)(=O)N1CCN(c2ccc(OC3CN(Cc4ccc(OC(F)(F)F)cc4)C3)cn2)CC1 [Example A8]
9 | 7.42 | CS(=O)(=O)N1CCN(c2ccc(OC3CN(Cc4ccc(C(F)(F)F)cc4)C3)cn2)CC1 [Example A9]
10 | 6.18 | CC(C)c1ccc(CN2CC(Oc3cnc(N4CCN(C(=O)OCc5ccccc5)CC4)cn3)C2)cc1 [Example A10]
11 | 7.66 | CC(C)c1ccc(CN2CC(Oc3cnc(N4CCN(S(C)(=O)=O)CC4)cn3)C2)cc1 [Example A11]
12 | 6.47 | COc1ccc(CN2CC(Oc3ccc(N4CCN(S(C)(=O)=O)CC4)nc3)C2)cc1 [Example A12]
13 | 6.62 | Cc1ccc(CN2CC(Oc3ccc(N4CCN(S(C)(=O)=O)CC4)nc3)C2)cc1 [Example A14]
14 | 6.87 | CS(=O)(=O)N1CCN(c2ccc(OC3CN(Cc4ccc(Cl)cc4)C3)cn2)CC1 [Example A15]
15 | 6.05 | CS(=O)(=O)N1CCN(c2ccc(OC3CN(Cc4cccc(C(F)(F)F)c4)C3)cn2)CC1 [Example A16]
16 | 7.59 | CS(=O)(=O)N1CCN(c2ccc(OC3CN(Cc4ccc(C(F)(F)F)cc4)C3)cn2)C(=O)C1 [Example A17]
17 | 7.96 | CC(C)c1ccc(CN2CC(Oc3ccc(N4CCN(S(C)(=O)=O)CC4=O)nc3)C2)cc1 [Example A18]
18 | 7.92 | CC(C)c1ccc(CN2CC(Oc3cnc(N4CCN(S(C)(=O)=O)CC4=O)cn3)C2)cc1 [Example A19]
19 | 8.05 | CCCS(=O)(=O)N1CCN(c2ccc(OC3CN(Cc4ccc(C(F)(F)F)cc4)C3)cn2)C(=O)C1 [Example A20]
20 | 7.41 | CCCS(=O)(=O)N1CCN(c2ccc(OC3CN(Cc4ccc(C(F)(F)F)cc4)C3)cn2)CC1 [Example A21]
21 | 6.94 | CC(C)c1ccc(CN2CC(Oc3ccc(N4CCN(S(C)(=O)=O)CC4)cc3)C2)cc1 [Example A22]
22 | 6.75 | CC(Cc1ccc(C(F)(F)F)cc1)N1CC(Oc2c(F)cc(C3CCN(S(C)(=O)=O)CC3)cc2F)C1 (stereo not shown) [Example A24]
23 | 6.61 | CCC(c1ccc(C(F)(F)F)cc1)N1CC(Oc2c(F)cc(C3CCN(S(C)(=O)=O)CC3)cc2F)C1 (stereo not shown) [Example A25]
24 | 6.48 | CS(=O)(=O)N1CCC(c2cc(F)c(OC3CN(Cc4ncc(C(F)(F)F)cc4Cl)C3)c(F)c2)CC1 [Example A26]
25 | 6.12 | CS(=O)(=O)N1CCC(c2cc(F)c(OC3CN(Cc4ncc(C(F)(F)F)cn4)C3)c(F)c2)CC1 [Example A27]
26 | 7.31 | CS(=O)(=O)N1CCC(c2cc(F)c(OC3CN(Cc4ccc(C5(F)COC5)cc4)C3)c(F)c2)CC1 [Example A28]

Row | pEC50 | Compound
27 | 5.96 | CS(=O)(=O)N1CCC(c2cc(F)c(OC3CN(C(CO)c4ccc(C(F)(F)F)cc4)C3)c(F)c2)CC1 (stereo not shown) [Example A29]
28 | 6.87 | CS(=O)(=O)N1CCC(c2cc(F)c(OC3CN(Cc4ccc5ccccc5c4)C3)c(F)c2)CC1 [Example A30]
29 | 6.19 | CS(=O)(=O)N1CCC(c2cc(F)c(OC3CN(Cc4cccc5ccccc45)C3)c(F)c2)CC1 [Example A31]
30 | 6.84 | CS(=O)(=O)N1CCN(c2cc(F)c(OC3CN(Cc4ccc(C(F)(F)F)cc4)C3)c(F)c2)CC1 [Example A32]
31 | 6.48 | CS(=O)(=O)N1CCN(c2cc(F)c(OC3CN(Cc4ccc(C(F)(F)F)cc4)C3)c(F)c2)C(=O)C1 [Example A33]
32 | 7.92 | CS(=O)(=O)N1CC=C(c2cc(F)c(OC3CN(Cc4ccc(C(F)(F)F)cc4)C3)c(F)c2)CC1 [Example A34]
33 | 6.16 | O=C(N1CC=C(c2cc(F)c(OC3CN(Cc4ccc(C(F)(F)F)cc4)C3)c(F)c2)CC1)C(F)(F)F [Example A35]
34 | 7.55 | O=S(=O)(C1CCOCC1)N1CCC(c2cc(F)c(OC3CN(Cc4ccc(C(F)(F)F)cc4)C3)c(F)c2)CC1 [Example A36]
35 | 6.49 | CC(C)(C)OC(=O)N1CCC(S(=O)(=O)N2CCC(c3cc(F)c(OC4CN(Cc5ccc(C(F)(F)F)cc5)C4)c(F)c3)CC2)CC1 [Example A37]
36 | 6.34 | O=S(=O)(C1CCNCC1)N1CCC(c2cc(F)c(OC3CN(Cc4ccc(C(F)(F)F)cc4)C3)c(F)c2)CC1 [Example A38]
37 | 6.67 | CC(C)(C)OC(=O)N1CCC(S(=O)(=O)N2CCC(c3cc(F)c(OC4CN(Cc5ccc(C(F)(F)F)cc5)C4)c(F)c3)CC2)C1 (stereo not shown) [Example A39]
38 | 6.24 | O=S(=O)(C1CCNC1)N1CCC(c2cc(F)c(OC3CN(Cc4ccc(C(F)(F)F)cc4)C3)c(F)c2)CC1 (stereo not shown) [Example A40]
39 | 7.44 | O=S(=O)(CCCO)N1CCC(c2cc(F)c(OC3CN(Cc4ccc(C(F)(F)F)cc4)C3)c(F)c2)CC1 [Example A41]
40 | 6.83 | CS(=O)(=O)N1CCN(c2ncc(OC3CN(Cc4ccc(C(F)(F)F)cc4)C3)cn2)CC1 [Example A42]
41 | 6.94 | CS(=O)(=O)N1CCN(c2ccc(OC3CN(Cc4ccc(C(F)(F)F)cc4)C3)c(F)c2)CC1 [Example A43]
42 | 7.42 | CS(=O)(=O)N1CCC(c2cc(F)c(OC3CCN(Cc4ccc(C(F)(F)F)nc4)CC3)c(F)c2)CC1 [Example A44]
43 | 7.32 | CS(=O)(=O)N1CCC(c2cc(F)c(OC3CCN(Cc4cccc(C(F)(F)F)c4)CC3)c(F)c2)CC1 [Example A45]
44 | 8.15 | CS(=O)(=O)N1CCC(c2cc(F)c(OC3CCN(Cc4nc(C(F)(F)F)no4)CC3)c(F)c2)CC1 [Example B1, 5-((4-(2,6-Difluoro-4-(1-(methylsulfonyl)piperidin-4-yl)phenoxy)piperidin-1-yl)methyl)-3-(trifluoromethyl)-1,2,4-oxadiazole]
45 | 7.55 | CC(C)(F)c1noc(CN2CCC(Oc3c(F)cc(C4CCN(S(C)(=O)=O)CC4)cc3F)CC2)n1 [Example B2, 5-((4-(2,6-difluoro-4-(1-(methylsulfonyl)piperidin-4-yl)phenoxy)piperidin-1-yl)methyl)-3-(2-fluoropropan-2-yl)-1,2,4-oxadiazole]
46 | 7.80 | CC(F)(F)c1noc(CN2CCC(Oc3c(F)cc(C4CCN(S(C)(=O)=O)CC4)cc3F)CC2)n1 [Example B3, 5-((4-(2,6-difluoro-4-(1-(methylsulfonyl)piperidin-4-yl)phenoxy)piperidin-1-yl)methyl)-3-(1,1-difluoroethyl)-1,2,4-oxadiazole]
47 | 6.12 | CS(=O)(=O)N1CCN(c2cnc(OC3CCN(Cc4nc(C(F)(F)F)no4)CC3)cn2)CC1 [Example B4, 5-((4-(5-(4-(Methylsulfonyl)piperazin-1-yl)pyrazin-2-yloxy)piperidin-1-yl)methyl)-3-(trifluoromethyl)-1,2,4-oxadiazole]
48 | 7.31 | CS(=O)(=O)N1CCC(c2cc(F)c(OC3CCN(Cc4nc(C(F)F)no4)CC3)c(F)c2)CC1 [Example B5]
49 | 7.43 | CS(=O)(=O)N1CCC(c2ccc(OC3CCN(Cc4nc(C(F)(F)F)no4)CC3)c(F)c2)CC1 [Example B6]
50 | 7.80 | CS(=O)(=O)N1CCC(c2ccc(OC3CCN(Cc4nc(C(F)(F)F)no4)CC3)cc2F)CC1 [Example B7]
51 | 6.54 | CC(C)(C)c1noc(CN2CC(Oc3c(F)cc(C4CCN(S(C)(=O)=O)CC4)cc3F)C2)n1 [Example B8]
52 | 7.12 | CC(C)c1noc(CN2CC(Oc3c(F)cc(C4CCN(S(C)(=O)=O)CC4)cc3F)C2)n1 [Example B9]
